The values that follow come from patent US11000511B2, “Chemical compounds as antibiotics” (priority 2017, dated 2021).

pKi: −log10 of the molar value. Bounds are passed on as bounds.

Holding throughout (assay type): biochemical
For assay [1], the target named is T1, purified LasB protein from P. aeruginosa (Pseudomonas aeruginosa, UniProt P14756).
T1 construct: purchased Merck or Charles River Laboratories
The assay is described as follows: Fluorometric assay to determine Ki (Assay 2). How it is done:
(§1) Experiments were therefore conducted (1) to measure the potency of inhibition of compounds of the invention against purified Pseudomonas aeruginosa LasB enzyme and also experiments were conducted (2) to measure the ability of compounds of the invention to inhibit LasB-catalysed elastin degradation. The first assay uses a commercial fluorescent synthetic peptide and purified LasB enzyme. The LasB hydrolysis kinetics are measured allowing the determination of the IC50 and Ki of the inhibitors; the second is a more physiological assay using dialysed Pseudomonas aeruginosa supernatant as source of enzyme, plus its natural substrate Elastin. It is an “end point assay” that determines the percentage of LasB inhibition by each compound for one particular time point and inhibitor concentration. Technical details are described below:
This assay uses commercially available substrate (Abz-Ala-Gly-Leu-Ala-p-Nitro-Benzyl-Amide (Ex: 340 nm, Em: 415 nm) from Peptide International) and purified LasB protein from P. aeruginosa (provided by Merck or Charles River Laboratories). It is performed to determine LasB elastase activity and assess compound inhibition in 96-well plate format. Some compounds of Formula (I) were assessed using the method of Assay 1 (described below). Other compounds of Formula (I) were assessed using the alternative but equivalent method of Assay 2 (described below).
Method: 10 to 140 ng/ml purified LasB is incubated with 250 μM Abz-Ala-Gly-Leu-Ala-p-Nitro-Benzyl-Amide in 50 mM Tris-HCl pH 7.4, 2.5 mM CaCl2), 0.01% of Triton X100 at 37° C. LasB activity (corresponding to fluorescence emission induced by substrate hydrolysis) is measured over 30 min at 37° C. with a fluorescence plate reader such as the Perkin Elmer Envision or similar. Different range of inhibitor concentrations are routinely assessed depending of inhibitor potency from 0.006 to 200 μM (Assay 1; 2-fold dilutions series) or from 0.0016 to 200 μM (Assay 2; 2-fold dilutions series) in order to determine IC50.
The equation used to calculate the Ki from IC50 is: Ki=IC50/(1+([S]/Km)) where [S]=250 μM and Km=214 μM.

Assay [2] has as its target T2, LasB elastase activity in dialysed supernatant from P. aeruginosa strain PA01 (Pseudomonas aeruginosa, UniProt P14756).
T2 construct: uses as source of enzyme dialysed supernatant from P. aeruginosa; endogenous in cells; host or cells: P. aeruginosa strain PA01 culture supernatant, filtered and dialysed
The assay is described as follows: Elastin Congo Red assay to determine % inhibition (Assay 2). The following applies: read-out: Elastin hydrolysis % inhibition @ 50/25 μM inhibitor concentration Assay 2. As to the method: as §1
The Elastin assay uses as source of enzyme dialysed supernatant from P. aeruginosa and the elastin congo red as substrate. The natural LasB substrate, elastin, is complexed with the congo red dye (Elastin Congo Red, ECR). The elastolysis activity from the culture supernatant will degrade elastin and release the congo red dye into the supernatant. This red dye release can be measured with a spectrophotometer. Some compounds of Formula (I) were assessed using the method of Assay 1 (described below). Other compounds of Formula (I) were assessed using the alternative but equivalent method of Assay 2 (described below).
Method (Assay 2): To determine LasB elastase activity and assess compound inhibition, an overnight culture of P. aeruginosa strain PA01 is diluted in LB medium. After reaching an OD600 nm of 0.6, this culture is diluted and incubated for additional 18-24 h in a shaking incubator. Culture supernatants are recovered by centrifugation and filtrated through a […] filter. These supernatants are dialysed (filtration molecules <20 kDa) into a 50 mM Tris-HCl pH 7.4, 2.5 mM CaCl2 solution at 4° C. under agitation for 24 h. Supernatant dialysed is then mixed volume/volume with the ECR suspension (20 mg/mL of ECR in 100 mM Tris-HCl pH 7.4 buffer supplemented with 1 mM CaCl2) supplemented with TritonX 100 (final concentration of 0.01%) in presence of DMSO (positive control) and/or different concentrations of compound (routinely […]). As a negative control, the dialysed supernatant is replaced by Tris-HCl solution (50 mM Tris-HCl pH 7.4, 2.5 mM CaCl2). The mixed reaction is then incubated overnight in a 37° C. shaking incubator. The reaction supernatant is recovered by centrifugation and the release of congo-red is measured by its absorbance at 495 nm (OD495 nm).
Percentage inhibition is determined using the following equation: ((OD495 nm value of positive control−OD495 nm value of negative control)−(OD495 nm value of treated supernatant−OD495 nm value of negative control))/(OD495 nm value of positive control−OD495 nm value of negative control)×100.

Assay [3] addresses T1, purified LasB protein from P. aeruginosa. Nature of the assay: Fluorometric assay to determine Ki (Assay 1). The settings on record: Ki (μM) Assay 1, purified LasB, substrate Abz-Ala-Gly-Leu-Ala-p-Nitro-Benzyl-Amide 250 μM, Ki calculated from IC50; inhibitor 0.006 to 200 μM. Summed up:
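Purified LasB (10 to 140 ng/ml) with 250 μM Abz-Ala-Gly-Leu-Ala-p-nitrobenzylamide in 50 mM Tris-HCl pH 7.4, 2.5 mM CaCl2, 0.01% Triton X100; hydrolysis read by fluorescence (Ex 340/Em 415 nm) over 30 min at 37° C. Inhibitor 2-fold series, 0.006–200 μM (Assay 1) or 0.0016–200 μM (Assay 2); IC50 converted to Ki via Ki=IC50/(1+[S]/Km), Km=214 μM.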

Assay [4] addresses T2, LasB elastase activity in dialysed supernatant from P. aeruginosa strain PA01. Nature of the assay: Elastin Congo Red assay to determine % inhibition (Assay 1). The following applies: read-out: Elastin hydrolysis % inhibition @ 50/25 μM inhibitor concentration Assay 1. Summed up:
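Enzyme source: PA01 culture supernatant (19 h growth), filtered and dialysed into 50 mM Tris pH 7.4, 2.5 mM CaCl2. Mixed 1:1 with Elastin Congo Red (20 mg/mL) plus 0.01% Triton X-100 and compound (routinely 50 and 25 μM), 24 h at 37 °C shaking. Dye release at OD520 gives % inhibition versus DMSO.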

The term pKi denotes the negative decadic logarithm of the Ki, by convention in mol/L. A high value points to a small Ki. What is called Ki is a dissociation constant, usually derived from enzyme kinetics or from competition with a known ligand.

T1 sequence (P14756 198-498): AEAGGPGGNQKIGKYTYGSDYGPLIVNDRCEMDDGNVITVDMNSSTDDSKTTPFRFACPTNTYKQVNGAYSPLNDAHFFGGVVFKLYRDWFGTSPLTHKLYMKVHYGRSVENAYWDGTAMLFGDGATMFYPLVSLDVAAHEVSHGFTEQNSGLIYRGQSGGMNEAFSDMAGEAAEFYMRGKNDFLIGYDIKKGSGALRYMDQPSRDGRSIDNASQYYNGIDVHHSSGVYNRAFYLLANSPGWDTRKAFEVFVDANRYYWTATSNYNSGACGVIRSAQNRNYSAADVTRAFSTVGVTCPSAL
T2 sequence (P14756 198-498): as above

Consider `COc1cc2sc(CNC(=O)C3(CC(=O)O)Cc4ccccc4C3)nc2cc1N1CC([N+](C)(C)C)C1` [Example 123, 2-(2-(((6-methoxy-5-(3-(trimethylammonio)azetidin-1-yl)benzo[d]thiazol-2-yl)methyl)carbamoyl)-2,3-dihydro-1H-inden-2-yl)acetate], for which, in assay [1], the negative-log Ki (pKi) was more than 6.52. Moreover, in assay [2], the inhibition at 50 µM is more than 60%.
For the molecule `O=C(O)CC1(C(=O)NCc2nc3ccccc3s2)Cc2ccccc2C1` [Example 10, 2-(2-{[(1,3-Benzothiazol-2-yl)methyl]carbamoyl}-2,3-dihydro-1H-inden-2-yl)acetic acid], the Ki in assay [3] is less than 0.3 µM. The inhibition at 50 µM in assay [4] was more than 60%.
On to `O=C(O)CC1(C(=O)NCc2cc3cc(Br)ccc3o2)Cc2ccccc2C1` [Example 18, 2-[2-[(5-bromobenzofuran-2-yl)methylcarbamoyl]indan-2-yl]acetic acid], for which the inhibition constant Ki in assay [3] was less than 0.3 µM. Further, the inhibition at 50 µM in assay [4] was more than 60%.
On to `Cn1cc(CNC(=O)C2(CC(=O)O)Cc3ccccc3C2)cn1` [Example 3, 2-[2-[(1-methylpyrazol-4-yl)methylcarbamoyl]-indan-2-yl]acetic acid], for which the Ki in assay [3] is 2 to 10 µM. Further, the inhibition at 50 µM in assay [4] lay within 30 to 60%.
As for `Cc1ccc2c(c1)CC(CNC(=O)C1(CC(=O)O)Cc3ccccc3C1)O2` (centres unmarked) [Example 7, 2-[2-[(5-methyl-2,3-dihydrobenzofuran-2-yl)methylcarbamoyl]indan-2-yl]acetic acid], in assay [3], the Ki is less than 0.3 µM. The inhibition at 50 µM in assay [4] is more than 60%.
With `CN(C)C[C@H]1C[C@H](c2ccc3nc(CNC(=O)C4(CC(=O)O)Cc5ccccc5C4)sc3c2)C1` [Example 91, 2-(2-(((6-((1 r,3r)-3-((dimethylamino)methyl)cyclobutyl)benzo[d]thiazol-2-yl)methyl)carbamoyl)-2,3-dihydro-1H-inden-2-yl)acetic acid], the Ki in assay [3] is less than 0.3 µM. Also, the inhibition at 50 µM in assay [4] is more than 60%.
In the case of `NC/C=C/c1ccc2sc(CNC(=O)C3(CC(=O)O)Cc4ccccc4C3)nc2c1` [Example 87, 2-[2-[[5-[(E)-3-aminoprop-1-enyl]-1,3-benzothiazol-2-yl]methylcarbamoyl]indan-2-yl]acetic acid], in assay [3], the inhibition constant (Ki) is 0.3 to 2 µM. For the same molecule, the inhibition at 50 µM in assay [4] is more than 60%.
For `CN1CCN(c2ccc3nc(CNC(=O)C4(CC(=O)O)Cc5ccccc5C4)sc3c2)CC1` [Example 42, 2-[2-[[6-(4-methylpiperazin-1-yl)-1,3-benzothiazol-2-yl]methylcarbamoyl]indan-2-yl]acetic acid], in that order: 0.3 to 2 µM and more than 60%.
On to `Cc1nnc([C@H](Cc2c[nH]c3ccccc23)NC(=O)C2(CC(=O)O)Cc3ccccc3C2)o1` [Example 117, (S)-2-(2-((2-(1H-indol-3-yl)-1-(5-methyl-1,3,4-oxadiazol-2-yl)ethyl)carbamoyl)-2,3-dihydro-1H-inden-2-yl)acetic acid], for which the Ki in assay [3] was 0.3 to 2 µM. Also, in assay [4], the inhibition at 50 µM is more than 60%.
Turning to `O=C(O)CC1(C(=O)NCc2nccs2)Cc2ccccc2C1` [Example 54, 2-(2-((thiazol-2-ylmethyl)carbamoyl)-2,3-dihydro-1H-inden-2-yl)acetic acid], the Ki in assay [3] is 0.3 to 2 µM. Besides, the inhibition at 50 µM in assay [4] was more than 60%.
As to `C[N+](C)(C)CCc1ccc2nc(CNC(=O)C3(CC(=O)[O-])Cc4ccccc4C3)sc2c1` [Example 96, 2-[2-[[6-[2-(trimethylammonio)ethyl]-1,3-benzothiazol-2-yl]methylcarbamoyl]indan-2-yl]acetate], in assay [3], the Ki was 0.3 to 2 µM. Also, the inhibition at 50 µM in assay [4] is 30 to 60%.
For `CN(C)CCOc1ccc2sc(CNC(=O)C3(CC(=O)O)Cc4ccccc4C3)nc2c1` [Example 112, 2-[2-[[5-[2-(dimethylamino)ethoxy]-1,3-benzothiazol-2-yl]methylcarbamoyl]indan-2-yl]acetic acid], in assay [3], the Ki is less than 0.3 µM. Besides, in assay [4], the inhibition at 50 µM is more than 60%.
Take `O=C(O)CC1(C(=O)N[C@H](CO)Cc2c[nH]c3ccccc23)Cc2ccccc2C1` [Example 33, (2-{[(2S)-1-hydroxy-3-(1H-indol-3-yl)propan-2-yl]carbamoyl}-1,3-dihydroinden-2-yl)acetic acid]: the Ki in assay [3] is 0.3 to 2 µM. Besides, the inhibition at 50 µM in assay [4] lay within 30 to 60%.
For `CN(C)CCCc1ccc2nc(CNC(=O)C3(CC(=O)O)Cc4ccccc4C3)sc2c1` [Example 36, 2-[2-[[6-[3-(dimethylamino)propyl]-1,3-benzothiazol-2-yl]methylcarbamoyl]indan-2-yl]acetic acid], in that order: less than 0.3 µM and more than 60%.
For `NC1CN(c2ccc3nc(CNC(=O)C4(CC(=O)O)Cc5ccccc5C4)sc3c2)C1` [Example 100, 2-[2-[[6-(3-aminoazetidin-1-yl)-1,3-benzothiazol-2-yl]methylcarbamoyl]indan-2-yl]acetic acid], in that order: less than 0.3 µM and more than 60%.
For `CN(C)CC#Cc1ccc2nc(CNC(=O)C3(CC(=O)O)Cc4ccccc4C3)sc2c1` [Example 35, 2-[2-[[6-[3-(dimethylamino)prop-1-ynyl]-1,3-benzothiazol-2-yl]methylcarbamoyl]indan-2-yl]acetic acid], in that order: less than 0.3 µM and more than 60%.
`O=C(O)CC1(C(=O)N[C@@H](Cc2ccc(O)cc2)C(=O)O)Cc2ccccc2C1` [Example 49, (2-(carboxymethyl)-2,3-dihydro-1H-indene-2-carbonyl)-L-tyrosine]: the Ki in assay [3] was 0.3 to 2 µM. Besides, the inhibition at 50 µM in assay [4] was more than 60%.
For the molecule `NC/C=C/c1ccc2nc(CNC(=O)C3(CC(=O)O)Cc4ccccc4C3)sc2c1` [Example 39, 2-[2-[[6-[(E)-3-aminoprop-1-enyl]-1,3-benzothiazol-2-yl]methylcarbamoyl]indan-2-yl]acetic acid], the inhibition constant Ki in assay [3] was less than 0.3 µM. Moreover, the inhibition at 50 µM in assay [4] is more than 60%.
Consider `O=C(O)CC1(C(=O)NCCc2cc3ccccc3s2)Cc2ccccc2C1` [Example 30, 2-[2-[2-(benzothiophen-2-yl)ethylcarbamoyl]indan-2-yl]acetic acid], for which the Ki in assay [3] is 2 to 10 µM. Further, the inhibition at 50 µM in assay [4] is 15 to 30%.
